For orientation: IC50 means the point on the concentration scale where inhibition reaches its midpoint.

Read-outs that look alike come from different tables or passages of the source. Some results are limits rather than exact numbers.

Assay [1] relates to AChE. As to conditions: cited from earlier work; for IC50: read-out: AChE IC50.
The subject of assay [2] is BChE. As to conditions: read-out: BChE IC50; cited from earlier work.
In assay [3] the target is T1, human blood acetylcholinesterase (AChE) (Homo sapiens, UniProt P22303).
T1 construct: Red blood cell lysate was used as a source of AChE and human plasma as a source of BChE; from tissue; host or cells: human erythrocytes (lysate) from freshly drawn blood of healthy volunteers
T1 sequence (P22303 32-617 isoform P22303-2 limits assumed): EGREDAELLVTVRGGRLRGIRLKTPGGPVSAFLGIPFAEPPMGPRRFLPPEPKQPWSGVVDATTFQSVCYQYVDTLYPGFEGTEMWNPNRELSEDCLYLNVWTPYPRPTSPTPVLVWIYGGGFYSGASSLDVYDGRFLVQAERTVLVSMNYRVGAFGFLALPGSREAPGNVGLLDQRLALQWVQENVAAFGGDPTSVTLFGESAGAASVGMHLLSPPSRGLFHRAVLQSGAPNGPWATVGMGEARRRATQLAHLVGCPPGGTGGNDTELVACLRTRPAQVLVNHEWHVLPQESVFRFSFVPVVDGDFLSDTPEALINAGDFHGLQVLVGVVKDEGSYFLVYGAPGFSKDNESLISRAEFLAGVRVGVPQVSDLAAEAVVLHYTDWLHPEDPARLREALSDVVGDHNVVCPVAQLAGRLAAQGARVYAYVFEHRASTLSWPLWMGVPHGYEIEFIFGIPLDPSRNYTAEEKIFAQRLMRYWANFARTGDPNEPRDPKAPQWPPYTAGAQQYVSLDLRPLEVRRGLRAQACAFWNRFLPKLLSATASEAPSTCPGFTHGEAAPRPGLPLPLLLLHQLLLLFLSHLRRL
Nature of the assay: AChE inhibition, modified Ellman's method, red blood cell lysate. It is filed as biochemical.

Assay [4] has as its target human plasma butyrylcholinesterase (BChE) (Homo sapiens, UniProt P06276). Nature of the assay: biochemical.
In assay [5] the target is T2, recombinant prolyl oligopeptidase (POP) (Homo sapiens, UniProt P48147).
T2 construct: purchased Sigma-Aldrich (Prague, Czech Republic)
T2 sequence (P48147 1-710): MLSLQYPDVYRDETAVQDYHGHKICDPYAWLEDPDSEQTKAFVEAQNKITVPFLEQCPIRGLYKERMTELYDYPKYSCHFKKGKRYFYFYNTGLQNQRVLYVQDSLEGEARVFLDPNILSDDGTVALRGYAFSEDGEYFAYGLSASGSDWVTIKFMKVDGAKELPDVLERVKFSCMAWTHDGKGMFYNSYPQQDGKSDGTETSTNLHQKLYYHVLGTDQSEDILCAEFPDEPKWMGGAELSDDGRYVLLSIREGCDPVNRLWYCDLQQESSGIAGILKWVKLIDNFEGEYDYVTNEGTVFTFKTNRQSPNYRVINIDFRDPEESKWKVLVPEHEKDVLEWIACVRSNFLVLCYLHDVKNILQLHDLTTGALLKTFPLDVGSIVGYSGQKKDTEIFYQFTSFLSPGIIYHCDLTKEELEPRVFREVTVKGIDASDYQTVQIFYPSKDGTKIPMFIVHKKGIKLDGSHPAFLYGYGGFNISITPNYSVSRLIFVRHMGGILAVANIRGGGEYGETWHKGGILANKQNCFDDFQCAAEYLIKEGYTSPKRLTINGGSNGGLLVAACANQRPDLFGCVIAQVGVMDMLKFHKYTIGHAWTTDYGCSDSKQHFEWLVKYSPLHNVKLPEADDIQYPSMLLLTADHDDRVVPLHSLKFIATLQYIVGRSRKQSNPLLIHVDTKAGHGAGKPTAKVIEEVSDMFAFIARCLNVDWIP
In words: Prolyl oligopeptidase assay, substrate Z-Gly-Pro-p-nitroanilide. In kind it is biochemical.

The target in assay [6] is T2, recombinant prolyl oligopeptidase (POP). As to conditions: tested previously; cited from earlier work.
The mark [7] stands for this setting: isolated from Fumaria vaillantii, review of Sener and Orhan.

Sequence of human plasma butyrylcholinesterase (BChE) (P06276 29-602): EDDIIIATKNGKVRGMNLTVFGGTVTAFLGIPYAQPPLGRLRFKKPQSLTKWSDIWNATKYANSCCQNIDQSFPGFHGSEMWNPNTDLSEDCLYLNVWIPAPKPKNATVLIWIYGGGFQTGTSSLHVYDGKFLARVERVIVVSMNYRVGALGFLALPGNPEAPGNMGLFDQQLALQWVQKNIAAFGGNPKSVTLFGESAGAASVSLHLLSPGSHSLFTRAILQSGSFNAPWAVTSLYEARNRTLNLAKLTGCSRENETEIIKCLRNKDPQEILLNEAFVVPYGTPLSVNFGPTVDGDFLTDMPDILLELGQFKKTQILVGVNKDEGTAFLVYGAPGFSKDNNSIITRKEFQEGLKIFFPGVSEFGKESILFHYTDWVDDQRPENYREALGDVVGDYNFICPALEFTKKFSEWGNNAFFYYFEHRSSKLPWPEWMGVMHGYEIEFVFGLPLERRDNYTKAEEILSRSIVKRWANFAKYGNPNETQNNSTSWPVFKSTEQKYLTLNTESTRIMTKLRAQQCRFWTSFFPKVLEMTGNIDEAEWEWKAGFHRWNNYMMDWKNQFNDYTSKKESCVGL

For `COc1cc2c(cc1O)C(Cc1ccc(O)cc1)N(C)CC2` (single isomer, unassigned; (+)) [(+)-N-methylcoclaurine], the results for the IC50 in assay [1] and in assay [2] were above 220 µM and 15 ± 1.4 µM, respectively.

`COc1ccc(CC2c3cc4c(cc3CCN2C)OCO4)c(C=O)c1OC` (single isomer, unassigned; (+)) [canadaline, (+)-canadaline]: in assay [1], the IC50 was 20.1 µM.

For `COc1ccc(C[C@H]2c3cc(O)c(OC)cc3CCN2C)cc1O` [(+)-reticuline], the IC50 in assay [1] was above 220 µM; in assay [2], 33.6 ± 3 µM.

`COc1cc2c(cc1O)[C@@H]1Cc3cc4c(cc3[C@H](C2)N1C)OCO4` [(–)-caryachine]: the IC50 in assay [1] is 19.6 ± 0.4 µM.

Regarding `COc1cc2c(cc1OC)[C@@H]1Cc3cc(OC)c(OC)cc3[C@H](C2)N1C` [Compound 3, (–)-argemonine], the results for the IC50 in assay [3], in assay [4] and in assay [5] were above 1000 µM, 885 ± 119 µM and 337 ± 83.1 µM, respectively.

For `COc1ccc2c(c1OC)CN(C)CCc1cc3c(cc1C(=O)C2)OCO3` [Compound 4, allocryptopine], the IC50 is 250 ± 25 µM in assay [3], 530 ± 28.2 µM in assay [4], above 1000 µM in assay [5] and 1.3 µM in assay [1] (setting [7]).

`COc1cc2c(cc1OC)[C@@H]1Cc3ccc(OC)c(O)c3[C@H](C2)N1C` [Compound 5, (–)-platycerine]: the IC50 is 224 ± 19.6 µM in assay [3], above 1000 µM in assay [4] and 687 ± 74 µM in assay [6].

As to `COc1cc2c(cc1O)[C@@H]1Cc3ccc(OC)c(O)c3[C@H](C2)N1C` [Compound 6, (–)-munitagine], the IC50 in assay [3] is 62.3 ± 5.8 µM; in assay [4], 837 ± 23 µM; in assay [5] it was 277 ± 31.3 µM.

Regarding `COc1cc2c(cc1O)[C@@H]1Cc3cc(OC)c(OC)cc3[C@H](C2)N1C` [Compound 7, (–)-norargemonine], the values for the half-inhibitory concentration (IC50) in assay [3] and in assay [4] were 205 ± 11.7 µM and above 1000 µM, respectively.

Take (–)-californidine: the half-inhibitory concentration (IC50) in assay [1] was 36.7 ± 0.9 µM.

With protopine [Compound 2], the “Type of AChE inhibition” value in assay [1] is “dose-dependent, specific, reversible and competitive AChE inhibitor”. In addition, in assay [1] (setting [7]), the concentration for half-maximal inhibition (IC50) is 1.8 µM.
